Measured values published in US20220110315A1, “SOLUTIONS AND METHODS FOR ORGAN PRESERVATION” (priority 2019, published 2022).

Tested on: isolated perfused rat hearts
Assay: Isolated perfused rat heart (modified Langendorff) global ischemia/reperfusion injury
Settings: 5 μM for 5 min prior to 30 min global ischemia and for first 5 min of 45 min reperfusion; compared to untreated control I/R hearts; n=7

## Oc1ccc2c3c1O[C@H]1c4[nH]c5ccccc5c4C[C@@]4(O)[C@@H](C2)N(CC2CC2)CC[C@]314 [naltrindole]
  infarct size (TTC staining at end of reperfusion): reduced infarct size
  post-reperfused cardiac function (+dP/dtmax, -dP/dtmin, LVDP, LVEDP): significantly restored
